Values joined by “and” are separate entries in the source; they are usually repeats but may differ in a detail not shown here. Equal values may be shown once.

Experiment [1] concerns the target T1, P2X4 (Homo sapiens, UniProt Q99571).
T1 sequence (Q99571 1-388): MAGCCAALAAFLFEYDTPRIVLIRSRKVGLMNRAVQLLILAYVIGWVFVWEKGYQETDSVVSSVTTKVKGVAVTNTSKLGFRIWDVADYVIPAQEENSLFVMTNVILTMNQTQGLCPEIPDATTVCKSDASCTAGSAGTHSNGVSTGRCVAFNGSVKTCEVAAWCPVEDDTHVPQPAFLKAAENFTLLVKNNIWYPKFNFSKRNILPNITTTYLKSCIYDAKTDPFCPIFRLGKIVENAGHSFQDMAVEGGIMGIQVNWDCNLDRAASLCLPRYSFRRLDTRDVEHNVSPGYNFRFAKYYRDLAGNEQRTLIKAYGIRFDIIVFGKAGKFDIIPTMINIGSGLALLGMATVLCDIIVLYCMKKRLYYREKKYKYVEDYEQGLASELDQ
Kind of experiment: Assay A: human P2X4 receptor cell line, FLIPR calcium assay (Fluo-8, agonist Bz-ATP at EC80). On the set-up: host or cells: HEK 293 (recombinant, constitutively expressing; with mitochondrial photina in Assay B). It counts as cell-based. The note with it: HEK human P2X4 cells, Fluo-8 FLIPR; for IC50: Bz-ATP at EC80, average values; for Emax: percentage of maximal inhibition, read-out: human P2X4 Assay A avg Efficacy. How it is done:
A fluorescent imaging plate reader (FLEX/FLIPR station; Molecular Devices) was used to monitor intracellular calcium levels using the calcium-chelating dye Fluo-8 (Molecular Probes). […] Cells expressing purinergic receptors human P2X4 (HEK human P2X4: PerkinElmer, Product No.: AX-015-PCF) were plated at a density of 20,000 cells/well in poly-D-lysine-coated 384-well plates approximately 20 hours before beginning the assay. On the day of the assay, the medium was removed and 30 μl of dye buffer (Hank's balanced salt solution, 10 mM HEPES, 1.8 mM CaCl2), 1 mM MgCl2, 2 mM probenecid, 5 mM D-glucose monohydrate, 5 μM Fluo-8, pH=7.4) was added for 30 min at […] and 5% CO2. The antagonist in probenecid buffer (Hank's balanced salt solution, 10 mM HEPES, 1.8 mM CaCl2, 1 mM MgCl2, 2 mM probenecid, 5 mM D-glucose monohydrate, pH=7.4) was added in a volume of 10 μl and allowed to incubate for 30 min at room temperature. The final assay DMSO concentration is 0.5%. The agonist, Bz-ATP, is added in a volume of 10 μl at a concentration representing the EC80 value. The fluorescence was measured for an interval of 120 sec at 2 sec intervals and analyzed based on the increase in peak relative fluorescence units (RFU) compared to the basal fluorescence. Peak fluorescence was used to determine the response to agonist obtained at each concentration of antagonist by the following equation:
% Response=100*(RFU(drug)−RFU(control))/(RFU(DMSO)−RFU(control))
The compounds were tested in triplicates per plate and mean values were plotted in Excel XLFit to determine IC50 values, percentage of maximal inhibition and the Hill coefficients.

In experiment [2] the target is T1, P2X4. Nature of the experiment: Assay B: human P2X4 receptor cell line, mitochondrial photina luminescence (agonist Bz-ATP at EC50). Format: cell-based. On the set-up: host or cells: HEK 293 (recombinant, constitutively expressing; with mitochondrial photina in Assay B). The note with it: HEK human P2X4 cell line, photina luminescence, agonist Bz-ATP at EC50, average; for Emax: read-out: human P2X4 Assay B avg Efficacy. An outline of the steps:
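Recombinant cell line constitutively expressing human P2X4 and mitochondrial photina photoprotein, reconstituted with coelenterazine. Receptor stimulated with Bz-ATP at EC50; calcium influx read immediately as luminescence.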

As to `NS(=O)(=O)c1cc(NC(=O)Cc2ccc(O)cc2)ccc1Oc1cccc(Cl)c1` [Example 256, N-[4-(3-Chlorophenoxy)-3-sulfamoylphenyl]-2-(4-hydroxyphenyl)acetamide], in experiment [1], the IC50 was 19 nM and the Emax came to 75%.
Turning to `COc1cc(C)cc(Cl)c1CC(=O)Nc1ccc(Oc2cccc(Cl)c2)c(S(N)(=O)=O)c1` [Example 257, 2-(2-Chloro-6-methoxy-4-methylphenyl)-N-[4-(3-chlorophenoxy)-3-sulfamoylphenyl]acetamide], in experiment [1], the IC50 stood at 355 nM and the Emax amounted to 85%.
Turning to `NS(=O)(=O)c1cc(NC(=O)Cc2c(F)cc(F)cc2Cl)ccc1Oc1cccc(Cl)c1` [Example 259, 2-(2-Chloro-4,6-difluorophenyl)-N-[4-(3-chlorophenoxy)-3-sulfamoylphenyl]acetamide], in experiment [1], the IC50 turned out to be 145 nM and the Emax came out at 76%.
As for `CC(C(=O)Nc1ccc(Oc2cccc(Cl)c2)c(S(N)(=O)=O)c1)c1c(Cl)cccc1Cl` (centres unmarked) [Example 260, N-[4-(3-Chlorophenoxy)-3-sulfamoylphenyl]-2-(2,6-dichlorophenyl)propanamide], in experiment [1], the IC50 amounted to 2490 nM and the Emax was 90%.
On to `[2H]c1c([2H])c([2H])c(Oc2ccc(NC(=O)Cc3ccccc3Cl)cc2S(N)(=O)=O)c([2H])c1[2H]` [Example 261, 2-(2-Chlorophenyl)-N-{4-[(^2H5)phenyloxy]-3-sulfamoylphenyl}acetamide], for which the Emax in experiment [1] turned out to be 89%.
`[2H]c1c([2H])c(Oc2ccc(NC(=O)Cc3ccccc3Cl)cc2S(N)(=O)=O)c([2H])c([2H])c1Cl` [Example 262, 2-(2-Chlorophenyl)-N-(4-{[4-chloro(^2H4)phenyl]oxy}-3-sulfamoylphenyl)acetamide]: in experiment [1], the IC50 was determined as 42 nM and the Emax amounted to 54%.
As for `[2H]c1c([2H])c([2H])c(Oc2ccc(NC(=O)Cc3ccccc3Cl)cc2S(N)(=O)=O)c(Cl)c1[2H]` [Example 263, 2-(2-Chlorophenyl)-N-(4-{[2-chloro(^2H4)phenyl]oxy}-3-sulfamoylphenyl)acetamide], in experiment [1], the Emax amounted to 95%.
`CC1(C)CC(COc2ccc(NC(=O)Cc3ccccc3Cl)cc2S(N)(=O)=O)CCO1` (centres unmarked) [Example 265, 2-(2-Chlorophenyl)-N-{4-[(2,2-dimethyltetrahydro-2H-pyran-4-yl)methoxy]-3-sulfamoylphenyl}acetamide]: in experiment [1], the IC50 was found to be 416 nM and the Emax worked out at 74%.
In the case of `NS(=O)(=O)c1cc(NC(=O)Cc2ccccc2Cl)ccc1OC[C@H]1[C@@H]2COC[C@@H]21` [Example 266, 2-(2-Chlorophenyl)-N-{4-[(1R,5S,6r)-3-oxabicyclo[3.1.0]hex-6-ylmethoxy]-3-sulfamoylphenyl}acetamide], in experiment [1], the IC50 amounted to 63 nM and the Emax amounted to 89%.
As for `NS(=O)(=O)c1cc(NC(=O)Cc2ccccc2Cl)ccc1OCC1(Cl)CCOCC1` [Example 267, 2-(2-Chlorophenyl)-N-{4-[(4-chlorotetrahydro-2H-pyran-4-yl)methoxy]-3-sulfamoylphenyl}acetamide], in experiment [1], the IC50 turned out to be 4440 nM and the Emax came out at 76%.
Turning to `NS(=O)(=O)c1cc(NC(=O)Cc2ccccc2Cl)ccc1OCC1COCCO1` (centres unmarked) [Example 268, 2-(2-Chlorophenyl)-N-[4-(1,4-dioxan-2-ylmethoxy)-3-sulfamoylphenyl]acetamide], in experiment [1], the Emax turned out to be 77%.
In the case of `NS(=O)(=O)c1cc(NC(=O)Cc2ccc3c(c2)OCCO3)ccc1Oc1ccc(Cl)cc1` [Example 276, N-[4-(4-Chlorophenoxy)-3-sulfamoylphenyl]-2-(2,3-dihydro-1,4-benzodioxin-6-yl)acetamide], in experiment [2], the IC50 is over 50000 nM and the Emax was found to be 35%.
In the case of `NS(=O)(=O)c1cc(NC(=O)Cc2cc3c(cc2Cl)OCCO3)ccc1Oc1cccc(Cl)c1` [Example 277, 2-(7-Chloro-2,3-dihydro-1,4-benzodioxin-6-yl)-N-[4-(3-chlorophenoxy)-3-sulfamoylphenyl]acetamide], in experiment [2], the IC50 turned out to be 185 nM and the Emax was determined as 45%.
Take `NS(=O)(=O)c1cc(NC(=O)Cc2ccc(F)cc2Cl)ccc1OCC1CCOCC1` [Example 282, 2-(2-Chloro-4-fluorophenyl)-N-[3-sulfamoyl-4-(tetrahydro-2H-pyran-4-ylmethoxy)phenyl]acetamide]: the Emax in experiment [1] amounted to 82%.
On to `NS(=O)(=O)c1cc(NC(=O)Cc2ccccc2Cl)ccc1Oc1ccc(C(F)(F)F)nc1` [Example 283, 2-(2-Chlorophenyl)-N-(3-sulfamoyl-4-{[6-(trifluoromethyl)pyridin-3-yl]oxy}phenyl)-acetamide], for which, in experiment [1], the IC50 came to 8050 nM and the Emax came to 62%.
On to `NS(=O)(=O)c1cc(NC(=O)Cc2ccccc2Cl)ccc1Oc1cc(C(F)(F)F)c(Cl)cn1` [Example 284, 2-(2-Chlorophenyl)-N-(4-{[5-chloro-4-(trifluoromethyl)pyridin-2-yl]oxy}-3-sulfamoyl-phenyl)acetamide], for which, in experiment [1], the IC50 worked out at 10900 nM and the Emax was determined as 82%.
`NS(=O)(=O)c1cc(NC(=O)Cc2ccccc2Cl)ccc1Oc1cnc(Cl)c(F)c1` [Example 286, N-{4-[(6-Chloro-5-fluoropyridin-3-yl)oxy]-3-sulfamoylphenyl}-2-(2-chlorophenyl)-acetamide]: in experiment [1], the IC50 worked out at 237 nM and the Emax amounted to 55%.
Turning to `NS(=O)(=O)c1cc(NC(=O)Cc2ccccc2Cl)ccc1OCC1(O)CCC(F)(F)CC1` [Example 287, 2-(2-Chlorophenyl)-N-{4-[(4,4-difluoro-1-hydroxycyclohexyl)methoxy]-3-sulfamoyl-phenyl}acetamide], in experiment [1], the IC50 was determined as 187 nM and the Emax was 58%.
In the case of `NS(=O)(=O)c1cc(NC(=O)Cc2ccccc2Cl)ccc1OCC1(O)CCCCC1` [Example 288, 2-(2-Chlorophenyl)-N-{4-[(1-hydroxycyclohexyl)methoxy]-3-sulfamoylphenyl}-acetamide], in experiment [1], the IC50 came to 988 nM and the Emax is 57%.
For `NS(=O)(=O)c1cc(NC(=O)Cc2ccccc2F)cc(F)c1Oc1cccc(Cl)c1` [Example 289, N-[4-(3-Chlorophenoxy)-3-fluoro-5-sulfamoylphenyl]-2-(2-fluorophenyl)acetamide] the same measures were over 25000 nM and 34%.
For `NS(=O)(=O)c1cc(NC(=O)Cc2ccccc2C(F)F)cc(F)c1Oc1cccc(Cl)c1` [Example 290, N-[4-(3-Chlorophenoxy)-3-fluoro-5-sulfamoylphenyl]-2-[2-(difluoromethyl)-phenyl]acetamide] the same measures were 16000 nM and 66%.
For `NS(=O)(=O)c1cc(NC(=O)Cc2ccccc2Cl)cc(F)c1Oc1cccc(Cl)c1` [Example 291, N-[4-(3-Chlorophenoxy)-3-fluoro-5-sulfamoylphenyl]-2-(2-chlorophenyl)acetamide], in experiment [1], the IC50 was 10500 nM and > 25000 nM; the Emax stood at 57%.
On to `NS(=O)(=O)c1cc(NC(=O)Cc2cc(F)ccc2Cl)cc(F)c1Oc1cccc(Cl)c1` [Example 292, 2-(2-Chloro-5-fluorophenyl)-N-[4-(3-chlorophenoxy)-3-fluoro-5-sulfamoyl-phenyl]acetamide], for which, in experiment [1], the half-maximal inhibitory concentration (IC50) was found to be 15100 nM and the Emax is 69%.
Consider `NS(=O)(=O)c1cc(NC(=O)Cc2ccccc2F)cnc1Oc1cccc(Cl)c1` [Example 293, N-[6-(3-Chlorophenoxy)-5-sulfamoylpyridin-3-yl]-2-(2-fluorophenyl)acetamide], for which, in experiment [1], the IC50 was 72 nM and the Emax came to 67%.

In general, IC50 refers to the midpoint of a concentration-inhibition curve.
